{
  "source": "paper PMC5063506",
  "about": "“A Novel Class of Small Molecule Agonists with Preference for Human over Mouse TLR4 Activation” (PLoS ONE, 2016)",
  "key": {"[1]": {"tested_on": "guinea pig TLR4, MD2, and CD14", "assay": "Guinea-pig TLR4 reporter agonist assay (HEK293 SEAP, DDAO phosphate)", "type": "cell-based", "settings": "10^-5 to 10^-10 M, 20 h, % of maximum 1 μM LPS signal", "description": "Fragments of guinea pig TLR4 were identified by searching the Ensembl genome browser database (http://www.ensembl.org/index.html) using the BLAST algorithm and discontiguous mega blast of the NCBI trace archives (http://www.ncbi.nlm.nih.gov/blast/tracemb.shtml) using the DNA sequence of human TLR4 Isotype A as the search string. Guinea pig CD14 was assembled in silico from fragments identified in the NCBI trace archives using human CD14 as the search string (76% similar/72% identical). Fragments corresponding to guinea pig MD2 were identified by searching the Ensembl genome browser database and NCBI trace archives with human MD2 as the search string (72% similar/68% identical). Sequence information was used to design primers for PCR amplification of full length coding sequences from guinea pig spleen cDNA. Sequences for guinea pig MD2 and CD14 were as predicted in silico. gpTLR4 was cloned into the expression vector pUNO (Invivogen). gpMD2 and gpCD14 were cloned together into pDUO (Invivogen) for co-expression. gpMD2 was also cloned into pUNO for transient co-expression with gpTLR4. A stable mixed population expressing gpTLR4 /CD14/MD2 was made by transfecting the gpTLR4/pUNO and gpMD2 + gpCD14/pDUO constructs into a HEK293 cell-line containing a stably integrated pNiFty2-SEAP reporter plasmid (Invivogen) using Fugene-6 (Roche). […]\nSEAP detection assay was performed as previous described by. […] Plates were read using the Envision plate reader excitation λex 620nm, emission λem 665nm. Data was analyzed as % maximum 1 μM Ultrapure (0111:B4) LPS activation signal (Invivogen).\nFig 5 Ugi compounds activate guinea pig TLR4/MD2-HEK transfectants. […] The plates were developed with the addition of DDAO phosphate as substrate and then read on a plate reader at 620 nm. Data were analyzed as % of the maximum 1 μM Ultrapure (0111:B4) LPS activation signal."}, "[2]": {"assay": "LogD, octanol/water distribution coefficient", "type": "physicochemical", "settings": "pH 7.4; octanol/water distribution coefficient at pH7.4", "description": "Fig 2 Optimization stages of Ugi products as TLR4 agonists. *Human TLR-4 NFκB SEAP reporter assays; protocol as described in Methods. Data are reported as pEC50, or negative log of the EC50 values. **Clint rh / hm represents intrinsic clearance in presence of rat hepatocytes (μL/min/10^6 cells) and human microsomes (μL/min/mg protein). […] Thus a drug molecule with LogD >4 might be considered to be very lipophilic and therefore more likely to suffer from rapid metabolic turnover, poor solubility and receptor promiscuity; whereas a LogD range of 1–3 is more likely to be associated with optimal physicochemical and drug-like properties. ^††Solubility was measured by dissolution of solid samples in buffer at pH 7.4."}},
  "data": [
    {"smiles": "CC(C)(C)c1ccc(N(C(=O)c2cc(-c3ccccc3)n(-c3ccccc3)n2)C(C(=O)NC2CCCC2)c2ccc(CC(=O)O)cc2)cc1", "note": "(stereo not drawn) [AZ902]", "values": [
      {"measurement": "potency on gpTLR4/gpMD2/gpCD14 HEK293 transfectants", "setting": "[1]", "result": "less active but still positive"},
      {"measurement": "logD", "setting": "[2]", "result": "> 4.5"}
    ]},
    {"smiles": "O=C(O)Cc1ccc(C(C(=O)NC2CCCC2)N(C(=O)c2cc(-c3ccccc3)n(-c3ccccc3)n2)c2ccc3c(c2)CCC3)cc1", "note": "(stereo not drawn) [AZ617]", "values": [
      {"measurement": "potency on gpTLR4/gpMD2/gpCD14 HEK293 transfectants", "setting": "[1]", "result": "potency comparable to LPS"},
      {"measurement": "logD", "setting": "[2]", "result": 2.85}
    ]},
    {"smiles": "Cc1ccc(N(C(=O)c2cc(-c3ccccc3)n(-c3ccccc3)n2)C(C(=O)NC2CCCC2)c2ccc(CC(=O)O)cc2)cc1Cl", "note": "(stereo not drawn) [AZ161]", "values": [
      {"measurement": "potency on gpTLR4/gpMD2/gpCD14 HEK293 transfectants", "setting": "[1]", "result": "potency comparable to LPS"},
      {"measurement": "logD", "setting": "[2]", "result": 3.2}
    ]}
  ]
}
